The record followed here is patent US20250346597A1, “CONDENSED HETEROCYCLIC COMPOUNDS AS INHIBITOR OF DIACYLGLYCEROL KINASES” (BEONE MEDICINES I GMBH, priority 2023, published 2025).

In experiment [1] the target is DGKζ (Homo sapiens (Human), UniProt Q13574). The experiment is described as follows: Biochemical DGK IC50 assay (ADP-Glo, lipid micelle substrate), DGKζ. The settings on record: full length DGKζ 0.5 nM, ATP 140 μM, DAG 80 μM. The method, boiled down: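 ADP-Glo luminescence measured ADP made in a 1 h room-temperature reaction. The enzyme was Sf9-expressed, purified full-length human DGKζ, and the substrate was DAG/PS micelles. Assay buffer held 50 mM HEPES, 10 mM MgCl2, 0.01 mM CaCl2, 0.1 mM Na3VO4 and 0.01% BSA. IC50 was derived from activity inhibition over a compound concentration series.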
Sequence of DGKζ (Q13574 other isoform, or with tags, fused parts or gaps): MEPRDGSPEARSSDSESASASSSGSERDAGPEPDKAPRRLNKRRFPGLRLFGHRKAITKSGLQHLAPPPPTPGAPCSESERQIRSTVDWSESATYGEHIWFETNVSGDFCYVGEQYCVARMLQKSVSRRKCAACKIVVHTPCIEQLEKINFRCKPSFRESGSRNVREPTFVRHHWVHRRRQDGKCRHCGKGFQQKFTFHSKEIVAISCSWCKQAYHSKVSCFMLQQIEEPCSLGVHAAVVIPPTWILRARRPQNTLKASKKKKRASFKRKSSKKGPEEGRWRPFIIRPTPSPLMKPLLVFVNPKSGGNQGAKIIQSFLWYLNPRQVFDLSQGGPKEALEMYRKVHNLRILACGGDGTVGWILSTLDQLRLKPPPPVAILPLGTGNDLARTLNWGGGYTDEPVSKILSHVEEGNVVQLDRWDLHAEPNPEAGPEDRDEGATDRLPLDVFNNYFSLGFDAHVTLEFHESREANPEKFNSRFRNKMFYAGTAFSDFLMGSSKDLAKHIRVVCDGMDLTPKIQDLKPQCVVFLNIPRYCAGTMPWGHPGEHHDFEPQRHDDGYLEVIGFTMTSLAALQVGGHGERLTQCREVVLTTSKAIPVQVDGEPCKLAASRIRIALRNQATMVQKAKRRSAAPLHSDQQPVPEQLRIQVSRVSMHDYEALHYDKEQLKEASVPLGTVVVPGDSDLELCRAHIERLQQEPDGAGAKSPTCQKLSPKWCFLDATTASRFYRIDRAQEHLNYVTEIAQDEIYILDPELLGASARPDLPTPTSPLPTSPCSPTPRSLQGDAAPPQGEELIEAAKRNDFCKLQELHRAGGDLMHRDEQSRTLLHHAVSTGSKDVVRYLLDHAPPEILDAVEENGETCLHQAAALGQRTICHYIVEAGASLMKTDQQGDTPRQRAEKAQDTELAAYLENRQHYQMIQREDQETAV

Experiment [2] deals with DGKα (Homo sapiens (Human), UniProt P23743). In words: Biochemical DGK IC50 assay (ADP-Glo, lipid micelle substrate), DGKα. Also: full length DGKα 7.5 nM. The conditions noted are these: full length DGKα […], ATP 140 μM, DAG 80 μM. The method, boiled down:
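Luminescent ADP-Glo detection followed a 1 h room-temperature reaction of full-length DGKα on DAG/PS micelles, in HEPES buffer with 10 mM MgCl2, 0.01 mM CaCl2, 0.1 mM Na3VO4, BSA and Tween-20. IC50 derived from inhibition across increasing compound concentrations.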

Sequence of DGKα (P23743 whole entry): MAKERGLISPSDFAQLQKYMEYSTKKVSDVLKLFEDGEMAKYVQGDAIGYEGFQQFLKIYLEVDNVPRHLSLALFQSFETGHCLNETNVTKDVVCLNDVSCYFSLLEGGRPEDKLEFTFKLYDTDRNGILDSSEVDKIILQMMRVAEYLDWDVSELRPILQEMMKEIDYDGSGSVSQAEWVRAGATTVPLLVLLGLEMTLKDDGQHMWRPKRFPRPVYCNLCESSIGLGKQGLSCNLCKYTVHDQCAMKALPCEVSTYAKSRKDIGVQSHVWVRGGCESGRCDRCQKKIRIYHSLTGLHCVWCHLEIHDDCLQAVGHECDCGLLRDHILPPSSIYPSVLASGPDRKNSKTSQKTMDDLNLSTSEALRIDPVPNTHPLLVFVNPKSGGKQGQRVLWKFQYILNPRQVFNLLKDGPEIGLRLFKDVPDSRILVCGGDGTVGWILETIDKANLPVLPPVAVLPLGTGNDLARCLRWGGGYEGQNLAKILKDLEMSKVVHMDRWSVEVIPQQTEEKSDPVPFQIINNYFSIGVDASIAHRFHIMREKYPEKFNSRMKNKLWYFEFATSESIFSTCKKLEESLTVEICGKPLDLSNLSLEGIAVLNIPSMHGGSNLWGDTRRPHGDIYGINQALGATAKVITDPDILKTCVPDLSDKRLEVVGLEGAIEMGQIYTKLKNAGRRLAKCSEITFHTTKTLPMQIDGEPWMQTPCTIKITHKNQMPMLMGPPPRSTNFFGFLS

On to `CC[C@H]1CN(C(C)c2ccc3c(c2)CCC3(C)C)[C@H](CC)CN1c1cc(=O)n(C)c2cn(CC#N)nc12` (stereo partly drawn) [Compound A66, 2-(7-((2S,5R)-4-(1-(1,1-dimethyl-2,3-dihydro-1H-inden-5-yl)ethyl)-2,5-diethylpiperazin-1-yl)-4-methyl-5-oxo-4,5-dihydro-2H-pyrazolo[4,3-b]pyridin-2-yl)acetonitrile], for which the IC50 is 96 nM in experiment [1] and 2250 nM in experiment [2].
The corresponding values for `CC[C@H]1CN(C(C)c2ccc3c(c2)CCO3)[C@H](CC)CN1c1cc(=O)n(C)c2cn(CC#N)nc12` (stereo partly drawn) [Compound A67, 2-(7-((2S,5R)-4-(1-(2,3-dihydrobenzofuran-5-yl)ethyl)-2,5-diethylpiperazin-1-yl)-4-methyl-5-oxo-4,5-dihydro-2H-pyrazolo[4,3-b]pyridin-2-yl)acetonitrile] are 71 nM and 245 nM.
`CC(c1ccc2c(c1F)OC(C)(C)O2)N1C[C@H](C)N(c2cc(=O)n(C)c3cn(CC#N)nc23)C[C@H]1C` (stereo partly drawn) [Compound A69, 2-(7-((2S,5R)-4-(1-(4-fluoro-2,2-dimethylbenzo[d][1,3]dioxol-5-yl)ethyl)-2,5-dimethylpiperazin-1-yl)-4-methyl-5-oxo-4,5-dihydro-2H-pyrazolo[4,3-b]pyridin-2-yl)acetonitrile]: the IC50 is 20 nM in experiment [1] and 4730 nM in experiment [2].
Turning to `CC(c1ccc2c(c1)OC(C)(C)O2)N1C[C@H](C)N(c2cc(=O)n(C)c3cn(CC#N)nc23)C[C@H]1C` (stereo partly drawn) [Compound A70, 2-(7-((2S,5R)-4-(1-(2,2-dimethylbenzo[d][1,3]dioxol-5-yl)ethyl)-2,5-dimethylpiperazin-1-yl)-4-methyl-5-oxo-4,5-dihydro-2H-pyrazolo[4,3-b]pyridin-2-yl)acetonitrile], the results for the IC50 in experiment [1] and in experiment [2] were 31 nM and 12400 nM, respectively.
`CC[C@H]1CN(C(C)c2ccc3c(c2F)OC(C)(C)O3)[C@H](CC)CN1c1cc(=O)n(C)c2cn(CC#N)nc12` (stereo partly drawn) [Compound A71, 2-(7-((2S,5R)-2,5-diethyl-4-(1-(4-fluoro-2,2-dimethylbenzo[d][1,3]dioxol-5-yl)ethyl)piperazin-1-yl)-4-methyl-5-oxo-4,5-dihydro-2H-pyrazolo[4,3-b]pyridin-2-yl)acetonitrile]: the IC50 was 4 nM in experiment [1] and 1830 nM in experiment [2].
Regarding `CC[C@H]1CN(C(C)c2ccc3c(n2)CCC3)[C@H](CC)CN1c1cc(=O)n(C)c2cn(CC#N)nc12` (stereo partly drawn) [Compound A72, 2-(7-((2S,5R)-4-(1-(6,7-dihydro-5H-cyclopenta[b]pyridin-2-yl)ethyl)-2,5-diethylpiperazin-1-yl)-4-methyl-5-oxo-4,5-dihydro-2H-pyrazolo[4,3-b]pyridin-2-yl)acetonitrile], the IC50 in experiment [1] was 33 nM; in experiment [2] it was 27 nM.
As for `CC[C@H]1CN(C(C)c2ccc3c(n2)CCO3)[C@H](CC)CN1c1cc(=O)n(C)c2cn(CC#N)nc12` (stereo partly drawn) [Compound A73, 2-(7-((2S,5R)-4-(1-(2,3-dihydrofuro[3,2-b]pyridin-5-yl)ethyl)-2,5-diethylpiperazin-1-yl)-4-methyl-5-oxo-4,5-dihydro-2H-pyrazolo[4,3-b]pyridin-2-yl)acetonitrile], the IC50 in experiment [1] worked out at 126 nM; in experiment [2], 91 nM.
Turning to `CC[C@H]1CN(C(C)c2cnc3c(c2)CCO3)[C@H](CC)CN1c1cc(=O)n(C)c2cn(CC#N)nc12` (stereo partly drawn) [Compound A74, 2-(7-((2S,5R)-4-(1-(2,3-dihydrofuro[2,3-b]pyridin-5-yl)ethyl)-2,5-diethylpiperazin-1-yl)-4-methyl-5-oxo-4,5-dihydro-2H-pyrazolo[4,3-b]pyridin-2-yl)acetonitrile], the figures for the IC50 in experiment [1] and in experiment [2] were 475 nM and 5820 nM, respectively.
Take `CC[C@H]1CN(C(C)c2ccc3c(F)cnn3c2)[C@H](CC)CN1c1cc(=O)n(C)c2cn(CC#N)nc12` (stereo partly drawn) [Compound A76, 2-(7-((2S,5R)-2,5-diethyl-4-(1-(3-fluoropyrazolo[1,5-a]pyridin-6-yl)ethyl)piperazin-1-yl)-4-methyl-5-oxo-4,5-dihydro-2H-pyrazolo[4,3-b]pyridin-2-yl)acetonitrile]: the IC50 turned out to be 179 nM in experiment [1] and 1600 nM in experiment [2].
The corresponding values for `CC[C@H]1CN(C(C)c2cnc3c(c2)ncn3C)[C@H](CC)CN1c1cc(=O)n(C)c2cn(CC#N)nc12` (stereo partly drawn) [Compound A78, 2-(7-((2S,5R)-2,5-diethyl-4-(1-(3-methyl-3H-imidazo[4,5-b]pyridin-6-yl)ethyl)piperazin-1-yl)-4-methyl-5-oxo-4,5-dihydro-2H-pyrazolo[4,3-b]pyridin-2-yl)acetonitrile] are 1870 nM and 25000 nM.
On to `CC[C@H]1CN(C(C)c2ccc3nscc3c2)[C@H](CC)CN1c1cc(=O)n(C)c2cn(CC#N)nc12` (stereo partly drawn) [Compound A88, 2-(7-((2S,5R)-4-(1-(benzo[c]isothiazol-5-yl)ethyl)-2,5-diethylpiperazin-1-yl)-4-methyl-5-oxo-4,5-dihydro-2H-pyrazolo[4,3-b]pyridin-2-yl)acetonitrile], for which the figures for the IC50 in experiment [1] and in experiment [2] were 10 nM and 51 nM, respectively.
The corresponding values for `CC[C@H]1CN(C(C)c2ccc3ccsc3c2)[C@H](CC)CN1c1cc(=O)n(C)c2cn(CC#N)nc12` (stereo partly drawn) [Compound A89, 2-(7-((2S,5R)-4-(1-(benzo[b]thiophen-6-yl)ethyl)-2,5-diethylpiperazin-1-yl)-4-methyl-5-oxo-4,5-dihydro-2H-pyrazolo[4,3-b]pyridin-2-yl)acetonitrile] are 34 nM and 28 nM.
On to `CC(c1ccc2ncsc2c1)N1C[C@H](C)N(c2cc(=O)n(C)c3cn(CC#N)nc23)C[C@H]1C` (stereo partly drawn) [Compound A93, 2-(7-((2S,5R)-4-(1-(benzo[d]thiazol-6-yl)ethyl)-2,5-dimethylpiperazin-1-yl)-4-methyl-5-oxo-4,5-dihydro-2H-pyrazolo[4,3-b]pyridin-2-yl)acetonitrile], for which the IC50 was determined as 99 nM in experiment [1] and 493 nM in experiment [2].
As for `CC[C@H]1CN(C(C)c2ccc3ncsc3c2)[C@H](CC)CN1c1c(Br)c(=O)n(C)c2cn(CC#N)nc12` (stereo partly shown) [Compound A94], the IC50 in experiment [1] was 974 nM; in experiment [2], 1850 nM.
`CC[C@H]1CN(C(C)c2ccc3ncsc3c2)[C@H](CC)CN1c1c(C#N)c(=O)n(C)c2cn(CC#N)nc12` (stereo partly drawn) [Compound A95, 7-((2S,5R)-4-(1-(benzo[d]thiazol-6-yl)ethyl)-2,5-diethylpiperazin-1-yl)-2-(cyanomethyl)-4-methyl-5-oxo-4,5-dihydro-2H-pyrazolo[4,3-b]pyridine-6-carbonitrile]: the IC50 in experiment [1] came out at 64 nM; in experiment [2], 52 nM.
As for `CC[C@H]1CN(C(C)c2cc3scnc3cn2)[C@H](CC)CN1c1cc(=O)n(C)c2cn(CC#N)nc12` (stereo partly drawn) [Compound A97, 2-(7-((2S,5R)-2,5-diethyl-4-(1-(thiazolo[4,5-c]pyridin-6-yl)ethyl)piperazin-1-yl)-4-methyl-5-oxo-4,5-dihydro-2H-pyrazolo[4,3-b]pyridin-2-yl)acetonitrile], the results for the IC50 in experiment [1] and in experiment [2] were 256 nM and 502 nM, respectively.
As to `CC[C@H]1CN(C(C)c2ccc3ocnc3c2)[C@H](CC)CN1c1cc(=O)n(C)c2cn(CC#N)nc12` (stereo partly shown) [Compound A105], the IC50 in experiment [1] stood at 157 nM; in experiment [2], 58 nM.
As to `CC[C@H]1CN(C(C)c2ccc3sc(C)nc3c2)[C@H](CC)CN1c1cc(=O)n(C)c2cn(CC#N)nc12` (stereo partly drawn) [Compound A108, 2-(7-((2S,5R)-2,5-diethyl-4-(1-(2-methylbenzo[d]thiazol-5-yl)ethyl)piperazin-1-yl)-4-methyl-5-oxo-4,5-dihydro-2H-pyrazolo[4,3-b]pyridin-2-yl)acetonitrile], the IC50 turned out to be 11 nM in experiment [1] and 2650 nM in experiment [2].
With `CCc1nc2cc(C(C)N3C[C@H](CC)N(c4cc(=O)n(C)c5cn(CC#N)nc45)C[C@H]3CC)ccc2s1` (stereo partly drawn) [Compound A109, 2-(7-((2S,5R)-2,5-diethyl-4-(1-(2-ethylbenzo[d]thiazol-5-yl)ethyl)piperazin-1-yl)-4-methyl-5-oxo-4,5-dihydro-2H-pyrazolo[4,3-b]pyridin-2-y)acetonitrile], the IC50 in experiment [1] came out at 18 nM; in experiment [2], 2430 nM.
Take `CC#CCn1cc2c(n1)c(N1C[C@@H](CC)N(C(C)c3ccc4ncsc4n3)C[C@@H]1C)cc(=O)n2C` (stereo partly drawn) [Compound A118, 2-(but-2-yn-1-yl)-7-((2S,5R)-5-ethyl-2-methyl-4-(1-(thiazolo[5,4-b]pyridin-5-yl)ethyl)piperazin-1-yl)-4-methyl-2,4-dihydro-5H-pyrazolo[4,3-b]pyridin-5-one]: the figures for the IC50 in experiment [1] and in experiment [2] were 232 nM and 20 nM, respectively.
The corresponding values for `CC#CCn1cc2c(n1)c(N1C[C@@H](CC)N(C(C)c3ccc4scnc4c3)C[C@@H]1C)cc(=O)n2C` (stereo partly drawn) [Compound A119, 7-((2S,5R)-4-(1-(benzo[d]thiazol-5-yl)ethyl)-5-ethyl-2-methylpiperazin-1-yl)-2-(but-2-yn-1-yl)-4-methyl-2,4-dihydro-5H-pyrazolo[4,3-b]pyridin-5-one] are 859 nM and 193 nM.
As for `CC[C@H]1CN(C(C)c2ccc(C3CC3)nc2)[C@H](CC)CN1c1cc(=O)n(C)c2cn(C3COC3)nc12` (stereo partly drawn) [Compound A121, 7-((2S,5R)-4-(1-(6-cyclopropylpyridin-3-yl)ethyl)-2,5-diethylpiperazin-1-yl)-4-methyl-2-(oxetan-3-yl)-2,4-dihydro-5H-pyrazolo[4,3-b]pyridin-5-one], the IC50 in experiment [1] worked out at 1470 nM; in experiment [2], 3080 nM.
As to `CC[C@H]1CN(C(C)c2ccc(C3CC3)nc2)[C@H](CC)CN1c1cc(=O)n(C)c2cn(CC3COC3)nc12` (stereo partly drawn) [Compound A122, 7-((2S,5R)-4-(1-(6-cyclopropylpyridin-3-yl)ethyl)-2,5-diethylpiperazin-1-yl)-4-methyl-2-(oxetan-3-ylmethyl)-2,4-dihydro-5H-pyrazolo[4,3-b]pyridin-5-one], the IC50 was more than 10000 nM in experiment [1] and 17100 nM in experiment [2].
